Assay results as given in ChEMBL document CHEMBL5385846, “Discovery and development of palmatine analogues as anti-NASH agents by activating farnesoid X receptor (FXR)” (Eur J Med Chem, 2023).
The source made the active and inactive calls. The rule behind the calls is not given here.

Legend:
Mus musculus [1] = assay: Anti-inflammatory activity in CDAHFD induced C57BL/6N mouse liver injury model assessed as downregulation of TNF-alpha mRNA expression in liver at 200 mg/kg,po qd administration for 4 weeks by qRT-PCR analysis; type: functional, organism-based
Mus musculus [2] = assay: Anti-inflammatory activity in CDAHFD induced C57BL/6N mouse liver injury model assessed as downregulation of MCP1 mRNA expression in liver at 200 mg/kg,po qd administration for 4 weeks by qRT-PCR analysis; type: functional, organism-based
Mus musculus [3] = assay: Anti-inflammatory activity in CDAHFD induced C57BL/6N mouse liver injury model assessed as downregulation of IL-6 mRNA expression in liver at 200 mg/kg,po qd administration for 4 weeks by qRT-PCR analysis; type: functional, organism-based
Mus musculus [4] = assay: Anti-inflammatory activity in CDAHFD induced C57BL/6N mouse liver injury model assessed as downregulation of IL-1beta mRNA expression in liver at 200 mg/kg,po qd administration for 4 weeks by qRT-PCR analysis; type: functional, organism-based
Mus musculus [5] = assay: Antifibrotic activity in CDAHFD induced non-alcoholic steatohepatitis C57BL/6N mouse model assessed as downregulation of COL1A1 protein expression at 200 mg/kg,po qd administration for 4 weeks by Western blotting analysis; type: functional, organism-based
Mus musculus [6] = assay: Antifibrotic activity in CDAHFD induced non-alcoholic steatohepatitis C57BL/6N mouse model assessed as downregulation of TIMP1 mRNA expression at 200 mg/kg,po qd administration for 4 weeks by qRT-PCR analysis; type: functional, organism-based
Mus musculus [7] = assay: Antifibrotic activity in CDAHFD induced non-alcoholic steatohepatitis C57BL/6N mouse model assessed as downregulation of COL1A1 mRNA expression at 200 mg/kg,po qd administration for 4 weeks by qRT-PCR analysis; type: functional, organism-based
Mus musculus [8] = assay: Hepatoprotective activity in CDAHFD induced C57BL/6N mouse liver injury model assessed as reduction in free cholesterol level at 200 mg/kg,po qd administration for 4 weeks; type: functional, organism-based
Mus musculus [9] = assay: Hepatoprotective activity in CDAHFD induced C57BL/6N mouse liver injury model assessed as reduction in fatty droplets at 200 mg/kg,po qd administration for 4 weeks by Oil red-O staining based microscopic analysis; type: functional, organism-based
Mus musculus [10] = assay: Hepatoprotective activity in CDAHFD induced C57BL/6N mouse liver injury model assessed as decrease in triglyceride level at 200 mg/kg,po qd administration for 4 weeks; type: functional, organism-based
Mus musculus [11] = assay: Hepatoprotective activity in CDAHFD induced C57BL/6N mouse liver injury model assessed as increase in HDL level at 200 mg/kg,po qd administration for 4 weeks; type: functional, organism-based
Mus musculus [12] = assay: Hepatoprotective activity in CDAHFD induced C57BL/6N mouse liver injury model assessed as decrease in LDH level at 200 mg/kg,po qd administration for 4 weeks; type: functional, organism-based
Mus musculus [13] = assay: Hepatoprotective activity in CDAHFD induced C57BL/6N mouse liver injury model assessed as decrease in ALP level at 200 mg/kg,po qd administration for 4 weeks; type: functional, organism-based
Mus musculus [14] = assay: Hepatoprotective activity in CDAHFD induced C57BL/6N mouse liver injury model assessed as decrease in ALT level at 200 mg/kg,po qd administration for 4 weeks; type: functional, organism-based
Mus musculus [15] = assay: Hepatoprotective activity in CDAHFD induced C57BL/6N mouse liver injury model assessed as decrease in AST level at 200 mg/kg,po qd administration for 4 weeks; type: functional, organism-based
[16] = Acute toxicity in Kunming mouse assessed as lethal dose at po administration; type: organism-based; details: in vivo
[17] = Acute toxicity in Kunming mouse assessed as effect on […] level at 250 to 1000 mg/kg,po administration; type: organism-based; details: in vivo, dose 250-1000 mg/kg
[18] = Acute toxicity in Kunming mouse assessed as effect on ALT level at 250 to 1000 mg/kg,po administration; type: organism-based; details: in vivo, dose 250-1000 mg/kg
LX-2 [19] = assay: Antifibrotic activity in TGF-beta1 induced human LX2 cells assessed as downregulation of TIMP1 mRNA expression incubated for 24 hrs by qRT-PCR analysis; type: functional, cell-based
LX-2 [20] = assay: Antifibrotic activity in TGF-beta1 induced human LX2 cells assessed as downregulation of alpha-SMA mRNA expression incubated for 24 hrs by qRT-PCR analysis; type: functional, cell-based
LX-2 [21] = assay: Antifibrotic activity in TGF-beta1 induced human LX2 cells assessed as downregulation of TGF-beta1 mRNA expression incubated for 24 hrs by qRT-PCR analysis; type: functional, cell-based
LX-2 [22] = assay: Antifibrotic activity in TGF-beta1 induced human LX2 cells assessed as downregulation of COL1A1 mRNA expression incubated for 24 hrs by qRT-PCR analysis; type: functional, cell-based
[23] = Metabolic stability in CD-1 mouse liver microsomes assessed as compound remaining at 1 micromol/L measured upto 60 mins in presence of NADPH by LC-MS/MS analysis; type: ADME, Microsome; details: 1 h, 1 µM, dose 1 µmol/L
[24] = Metabolic stability in human liver microsomes assessed as microsomal intrinsic clearance at 1 micromol/L measured upto 60 mins in presence of NADPH by LC-MS/MS analysis; type: ADME, Microsome; details: dose 1 µmol/L, read-out: CLH
[25] = Half life in CD-1 mouse liver microsomes at 1 micromol/L measured upto 60 mins in presence of NADPH by LC-MS/MS analysis; type: ADME, Microsome; details: 1 h, 1 µM, dose 1 µmol/L
[26] = Cytotoxicity against human LX2 cells assessed as inhibition of cell growth; type: toxicity, cell-based, LX-2
THP-1 [27] = assay: Anti-inflammatory activity in PMA differentiated human THP-1 cells assessed as downregulation of IL-1beta protein expression at 10 micromol/L incubated for 4 hrs followed by LPS and Nigericin addition for 3.5 hrs by Western blotting analysis; type: functional, cell-based; details: dose 10.0 µmol/L, time 7.5 hrs
THP-1 [28] = assay: Anti-inflammatory activity in PMA differentiated human THP-1 cells assessed as downregulation of caspase-1 protein expression at 10 micromol/L incubated for 4 hrs followed by LPS and Nigericin addition for 3.5 hrs by Western blotting analysis; type: functional, cell-based; details: dose 10.0 µmol/L, time 7.5 hrs
Rattus norvegicus [29] = assay: Hepatoprotective activity in bile duct ligation induced Sprague-Dawley rat liver injury model assessed as decrease in ALT level at 200 mg/kg,po qd administration for 14 days; type: functional, organism-based; details: time 14.0 day
Rattus norvegicus [30] = assay: Hepatoprotective activity in bile duct ligation induced Sprague-Dawley rat liver injury model assessed as decrease in AST level at 200 mg/kg,po qd administration for 14 days; type: functional, organism-based; details: time 14.0 day
Rattus norvegicus [31] = assay: Hepatoprotective activity in bile duct ligation induced Sprague-Dawley rat liver injury model assessed as decrease in total bilirubin level at 200 mg/kg,po qd administration for 14 days; type: functional, organism-based; details: time 14.0 day
Rattus norvegicus [32] = assay: Antifibrotic activity in bile duct ligation induced Sprague-Dawley rat liver fibrosis model assessed as downregulation of COL1A1 mRNA expression at 200 mg/kg,po qd administration for 14 days by qRT-PCR analysis; type: functional, organism-based; details: time 14.0 day
Rattus norvegicus [33] = assay: Antifibrotic activity in bile duct ligation induced Sprague-Dawley rat liver fibrosis model assessed as downregulation of TIMP1 mRNA expression at 200 mg/kg,po qd administration for 14 days by qRT-PCR analysis; type: functional, organism-based; details: time 14.0 day
Rattus norvegicus [34] = assay: Antifibrotic activity in bile duct ligation induced Sprague-Dawley rat liver fibrosis model assessed as downregulation of NTCP protein expression at 200 mg/kg,po qd administration for 14 days by Western blotting analysis; type: functional, organism-based; details: time 14.0 day

For `COc1cc2c(cc1OC)-c1cc3ccc(OC)c(OCc4cccc(C)c4)c3c[n+]1CC2.[Br-]`, the Activity (Mus musculus [1]) was “Active”, the Activity (Mus musculus [2]) was “Active” and the Activity (Mus musculus [3]) was “Active”. For the same compound, the Activity (Mus musculus [4]) was “Active”, the Activity (Mus musculus [5]) was “Active” and the Activity (Mus musculus [6]) was “Active”. The Activity (Mus musculus [7]) was “Active”, the Activity (Mus musculus [8]) was “Active” and the Activity (Mus musculus [9]) was “Active”. The Activity (Mus musculus [10]) was “inactive”, the Activity (Mus musculus [11]) was “Active” and the Activity (Mus musculus [12]) was “Active”. The Activity (Mus musculus [13]) was “Active”, the Activity (Mus musculus [14]) was “Active” and the Activity (Mus musculus [15]) was “Active”. For the same compound, the LD50 [16] was over 1000 mg/kg, the Activity [17] was “Non-Toxic” and the Activity [18] was “Non-Toxic”. The Activity (LX-2 [19]) was “Dose-Dependent Effect”, the Activity (LX-2 [20]) was “Dose-Dependent Effect” and the Activity (LX-2 [21]) was “Dose-Dependent Effect”. For the same compound, the Activity (LX-2 [22]) was “Dose-Dependent Effect”, the Stability [23] was 39% and the microsomal CLint at 1 µM [24] was 26 µL/min/mg. The t1/2 [25] was 7.4 min, the CC50 [26] was 70.4 µM and the Activity (THP-1 [27]) was “Active”. The Activity (THP-1 [28]) was “Active”, the Activity (Rattus norvegicus [29]) was “Active” and the Activity (Rattus norvegicus [30]) was “Active”. For the same compound, the Activity (Rattus norvegicus [31]) was “Active”, the Activity (Rattus norvegicus [32]) was “Active” and the Activity (Rattus norvegicus [33]) was “Active”. For the same compound, the Activity (Rattus norvegicus [34]) was “Active”.
